pIC50: −log10 of the molar value. Structures can show the parent of a compound that is named as a salt.
Tests used:
[1] = system: isoniazide induced convulsions in mice; experiment: Isoniazid antagonism (antagonism of isoniazide induced convulsions in mice); type: in vivo, mice (male NMRI/BOM); details: Mus musculus, sc, 30 min before 300 mg isoniazide s.c., protected = no convulsions within 60 min, log probit analysis
Method: The test is a test for antagonism of isoniazide induced convulsions in mice.
The test substance is given s.c. to mice (male NMRI/BOM, body weight 20-25 g) and 30 min later 300 mg isoniazide is given s.c. Five mice are used per dose and a control group only receiving isoniazide is included. This dose of isoniazide induces intermittent tonic seizures.
The animals are placed individually in Macrolon type II cages and the time when convulsions first occur is recorded. The experiment is stopped after 90 min. The animals that have not had convulsions within 60 min. are recorded as + (protected). The results, i.e. the number of protected mice pr number of tested mice are stated in fractions as follows: 0/5, 1/5 . . . , 5/5.

[2] = system: GABA uptake in synaptosomes; experiment: GABA uptake inhibition in synaptosomes (overall, i.e. neuronal and glial); type: biochemical; details: values marked * = Preliminary Data
Method: The inhibition of GABA Uptake was performed by the method described by Falch et. al, Drug Dev. Res., 1990,21, 169-188. By this method the overall, i.e. neuronal and glial, inhibition of GABA uptake is determined.

| SMILES | ED50 [1] | pIC50 [2] | pIC50 ([2]; hydrobromide) |
| --- | --- | --- | --- |
| CNC1CCCc2onc(OCOC(=O)c3c(F)cccc3F)c21 (racemic) [Compound 31c, (R,S)-4-Methylamino-3-(2,6-difluorobenzoyloxymethyloxy)-4,5,6,7-tetrahydro-1,2-benzisoxazole, hemioxalate] | 210 µmol/kg | – | – |
| Oc1noc2c1C(NCCC(c1ccccc1)c1ccccc1)CCC2 (racemic) [Compound 8i, (R,S)-4-(3,3-diphenylpropan-1-ylamind]-3-hydroxy-4,5,6,7-tetrahydro-1,2-benzisoxazole, hydrobromide] | 310 µmol/kg | 6.85 | – |
| CNC1CCCc2onc(O)c21 (racemic) [Compound 8a, (R,S)-3-Hydroxy-4-methylamino-4,5,6,7-tetrahydro-1,2-benzisoxazole, hydrobromide] | > 320 µmol/kg | 4.19 | – |
| CN(CCCC(c1ccc(F)cc1)c1ccc(F)cc1)C1CCCc2onc(O)c21 (racemic) [Compound 11a, (R,S)-^4-[N-[4,4-Bis(4-fluorophenyl)butan-1-yi]-N-methylamino]-3-hydroxy-4,5,6,7-tetrahydro-1,2-benzisoxazole, hydrobromide] | 67 µmol/kg | 6.14 | – |
| CN(CCC=C1c2ccccc2CCc2ccccc21)C1CCCc2onc(O)c21 (racemic) [Compound 8k, (R,S)-4-[N-[3-(10,11 1-ihydrodibenzo[a,d]cyclohept-5-ylidene)propane-1-yl]methylamino]-3-hydroxy-4,5,6,7-tetrahydro-1,2-benzisoxazole, hydrobromide] | 68 µmol/kg | – | – |
| OCCNC1CCCc2onc(O)c21 (racemic) [Compound 9a, (R,S)-4-(2-Hydroxyethylamino)-3-hydroxy-4,5,6,7-tetrahydro-1,2-benzisoxazole, hydrobromide] | > 140 µmol/kg | 3.74 | – |
| CNC1CCCc2onc(O)c21 (single isomer, unassigned; (-)) [Compound 6d, (-)-3-hydroxy-4-methylamino-4,5,6,7-tetrahydro-1,2-benzisoxazole, hydrobromide] | – | – | < 3.52 |
| Cc1ccsc1C(=CCCNC1CCCc2onc(O)c21)c1sccc1C (racemic) [Compound 20c, (R,S)-3-Hydroxy-4-[N-(4,4-bis[3-methylthien-2-yl]-3-butenyl)amino]-4,5,6,7-tetrahydro-1,2-benzisoxazole hydrochloride] | – | 6.77 | – |
| CNC1CCCc2on(C(=O)NCc3ccccc3)c(=O)c21 (racemic) [Compound 15c] | > 120 µmol/kg | 4.08 | – |
| Oc1noc2c1C(NCCCC(c1ccccc1)c1ccccc1)CCC2 (racemic) [Compound 8g, (R,S)-4-(4,4-diphenylbutan-1-ylamino]-3-hydroxy-4,5,6,7-tetrahydro-1,2-benzisoxazole, hydrobromide] | 56 µmol/kg | 6.77 | – |
| CNC1CCCc2onc(O)c21 (single isomer, unassigned; (+)) [Compound 6c, (+)-3-hydroxy-4-methylamino-4,5,6,7-tetrahydro-1,2-benzisoxazole, hydrobromide] | > 320 µmol/kg | – | 4.38 |
| CN(CCCC(c1ccccc1)c1ccccc1)C1CCCc2onc(O)c21 (racemic) [Compound 11b, (R,S)-4-[-N -(4,4-Diphenylbut-1-yl)-N-methylamino]-3-hydroxy-4,5,6,7-tetrahydro-1,2-benzisoxazole, hydrobromide] | 640 µmol/kg | 6.39 | – |
| N[C@H]1CCCc2onc(O)c21 [Compound 6a, (+)-4-amino-3-hydroxy-4,5,6,7-tetrahydro-1,2-benzisoxazole, hydrochloride] | – | < 3.52 | – |
| NC1CCCc2snc(O)c21 (racemic) [Compound 26a, (R,S)-4-Amino-3-hydroxy-4,5,6,7-tetrahydro-1,2-benzisothiazole, hydrobromide] | – | < 3.52 | – |
| CN(CCOC(c1ccccc1)c1ccccc1)C1CCCc2onc(O)c21 (racemic) [Compound 16c, (R,S)-4-[N-(diphenylmethyl-2-oxyethyl)-N-methylamino]-3-hydroxy-4,5,6,7-tetrahydro-1,2-benzisoxazole, hydrochloride] | 160 µmol/kg | 6.44 | – |
| CN(CCOC(c1ccc(Cl)cc1)c1ccc(Cl)cc1)C1CCCc2onc(O)c21 (racemic) [Compound 16b, (R,S)-4-[N -[bis (4-chlorophenyl)methyl-2-oxyethyl]-N -methylamino]-3-hydroxy-4,5,6,7-tetrahydro-1,2-benzisoxazole, sodium salt] | 81 µmol/kg | 5.31 | – |
| N[C@@H]1CCCc2onc(O)c21 [Compound 6b, (-)-(R)-4-amino-3-hydroxy-4,5,6,7-tetrahydro-1,2-benzisoxazole, hydrochloride] | – | 3.92 | – |

| SMILES | ED50 [1] | pIC50 [2] | pIC50 ([2]; hydrobromide) |
| --- | --- | --- | --- |
| CNC1CCCc2onc(OCOC(=O)C(C)(C)C)c21 (racemic) [Compound 14a, (R,S)-4-methylamino-3-pivaloyloxymethyloxy-4,5,6,7-tetrahydro-1,2-benzisoxazole, hemioxalate] | 86 µmol/kg | < 3.52 | – |
| Cc1ccccc1C(=CCCN(C)C1CCCc2onc(O)c21)c1ccccc1C (racemic) [Compound 8o, (R,S)-4-[N-[1,1-Di-(2-tolyl)but-1-en-4-yl]methylamino]-3-hydroxy-4,5,6,7-tetrahydro-1,2-benzisoxazole] | 50 µmol/kg | – | – |
| Cc1ccccc1C(=CCCNC1CCCc2onc(O)c21)c1ccccc1C (racemic) [Compound 8p, (R,S) -4-[N-1,1-Di-(2-tolyl)but-1-en-4-yl]amino]-3-hydroxy-4,5,6,7-tetrahydro-1,2-benzisoxazole, hydrobromide] | 30 µmol/kg | – | – |
| CNC(=O)n1oc2c(c1=O)C(NC)CCC2 (racemic) [Compound 15b] | 72 µmol/kg | 4.10 | – |
| Cc1ccsc1C(=CCCN(C)C1CCCc2onc(O)c21)c1sccc1C (racemic) [Compound 16d, (R,S)-4-[N-(4,4-bis[3-methylthien-2-yl]-3-butenyl)-N-methylamino]-3-hydroxy-4,5,6,7-tetrahydro-1,2-benzisoxazole hydrochloride] | 63 µmol/kg | 6.51 | – |
| CNC1CCCc2onc(OCOC(=O)c3c(C)cc(C)cc3C)c21 (racemic) [Compound 31b, (R,S)-4-Methylamino-3-(2,4,6-trimethylbenzoyloxymethyloxy)-4,5,6,7-tetrahydro-1,2-benzisoxazole, hemioxalate] | 55 µmol/kg | 3.52 | – |
| Oc1noc2c1C(NCCCC(c1ccc(F)cc1)c1ccc(F)cc1)CCC2 (racemic) [Compound 8b, (R,S)-4-[4,4-Bis(4-fluorophenyl)butan-1-ylamino]-3-hydroxy-4,5,6,7-tetrahydro-1,2-benzisoxazole, hydrobromide] | 110 µmol/kg | 6.62 | – |
| CN(C(=O)Oc1ccccc1)C1CCCc2onc(O)c21 (racemic) [Compound 28a, (R,S)-3-Hydroxy-N-methyl-N-(4-phenyloxycarbonyl)amino-4,5,6,7-tetrahydro-1,2-benzisoxazole] | 200 µmol/kg | – | – |
| CNC1CCCc2onc(OCOC(=O)c3ccccc3)c21 (racemic) [Compound 31a, (R,S)-3-Benzoyloxymethyloxy-4-methylamino-4,5,6,7-tetrahydro-1,2-benzisoxazole, hemioxalate] | 210 µmol/kg | – | – |
| Oc1noc2c1C(NCCCN1c3ccccc3Sc3ccccc31)CCC2 (racemic) [Compound 8l, (R,S)-4-[N-3-(Phenothiazin-10-yl)propane-1-yl]amino]-3-hydroxy4,5,6,7-tetrahydro-1,2-benzisoxazole, hydrobromide] | 71 µmol/kg | – | – |
| CNC1CCCc2on(C(=O)Nc3ccccc3)c(=O)c21 (racemic) [Compound 15a, (R,S)-4-methylamino-2-phenylaminocarbonyl4,5,6,7-tetrahydro-1,2benzisoxazol-3-one, hydrochloride] | > 120 µmol/kg | 4.15 | – |
| Oc1noc2c1C(NCCCCc1ccccc1)CCC2 (racemic) [Compound 8h, (R,S)-4-(4-phenylbut-1-ylamino]-3-hydroxy-4,5,6,7-tetrahydro-1,2-benzisoxazole, hydrobromide] | 150 µmol/kg | 5.32 | – |
| Oc1noc2c1C(NCCC=C(c1ccccc1)c1ccccc1)CCC2 (racemic) [Compound 20b, (R,S)-3-Hydroxy-4-[N-(4,4-diphenyl-3-butenyl)amino]-4,5,6,7-tetrahydro-1,2-benzioxazole hydrochloride hydrate] | – | 6.85 | – |
| CN(C)C1CCCc2onc(O)c21 (racemic) [Compound 18a, (R,S)-4-Dimethylamino-3-hydroxy-4,5,6,7-tetrahydro-1,2-benzisoxazole, hydrobromide] | – | 3.55 | – |
| Cc1ccccc1C(CCCNC1CCCc2onc(O)c21)c1ccccc1C (racemic) [Compound 8n, (R,S)-4-[N-[4,4-Di-(2-tolyl)butan-1-yl]amino]-3-hydroxy-4,5,6,7-tetrahydro-1,2-benzisoxazole, hydrobromide] | 44 µmol/kg | – | – |
| Cc1ccccc1C(CCCN(C)C1CCCc2onc(O)c21)c1ccccc1C (racemic) [Compound 8m, (R,S)-4-[N-[4,4-Di-(2-tolyl)butan-1-yl]-rmethylamino]-3-hydroxy-4,5,6,7-tetrahydro-1,2-benzisoxazole, hydrobromide] | 27 µmol/kg | – | – |
| Oc1noc2c1C(NCCC=C1c3ccccc3CCc3ccccc31)CCC2 (racemic) [Compound 8j, (R,S)-4-[N-[3-(10,11-dihydrodibenzo[a,d]cyclohept-5-ylidene)propane-1-yl]amino]-3-hydroxy-4,5,6,7-tetrahydro-1,2-benzisoxazole, hydrobromide] | – | 5.96 | – |
